# Test results from US20110218199A1, “PYRIDONEAMIDE DERIVATIVES, THEIR MANUFACTURE AND USE AS PHARMACEUTICAL AGENTS” (priority 2007, published 2011).
# System: HCT 116 cells
# Test: CellTiter-Glo assay in HCT 116 cells (antiproliferative activity)
# Format: cell-based
# Conditions: Homo sapiens, HCT-116, 120 h, CellTiter-Glo cell viability, HCT 116 human colon carcinoma, 5 days (120 h) incubation
# Excerpt: Antiproliferative Activity:
# CellTiter-Glo™ Assay in HCT 116 Cells:
# The CellTiter-Glo™ Luminescent Cell Viability Assay (Promega) is a homogeneous method of determining the number of viable cells in culture based on quantitation of the ATP present, which signals the presence of metabolically active cells.
# HCT 116 cells (human colon carcinoma, ATCC-No. CCl-247) were cultivated in RPMI 1640 medium with GlutaMAX• I (Invitrogen, Cat-No. 61870-010), 5% Fetal Calf Serum (FCS, Sigma Cat-No. F4135 (FBS)); 100 Units/ml penicillin/100 μg/ml streptomycin (=Pen/Strep from Invitrogen Cat. No. 15140). For the assay the cells were seeded in 384 well plates, 1000 cells per well, in the same medium. The next day the test compounds were added in various concentrations ranging from 30 μM to 0.0015 μM (10 concentrations, 1:3 diluted). After 5 days the CellTiter-Glo™ assay was done according to the instructions of the manufacturer (CellTiter-Glo™ Luminescent Cell Viability Assay, from Promega). In brief: the cell-plate was equilibrated to room temperature for approximately 30 minutes and than the CellTiter-Glo™ reagent was added. The contents were carefully mixed for 15 minutes to induce cell lysis. After 45 minutes the luminescent signal was measured in Victor 2, (scanning multiwell spectrophotometer, Wallac).
# 1st. Day: • Medium: RPMI 1640 with GlutaMAX™ I (Invitrogen, Cat-Nr. 61870), 5% FCS (Sigma Cat.-No. F4135), Pen/Strep (Invitrogen, Cat No. 15140). • HCT116 (ATCC-No. CC1-247): 1000 cells in 60 μl per well of 384 well plate (Greiner 781098, μClear-plate white) • After seeding incubate plates 24 h at 37° C., 5% CO2
# 2nd. Day: Induction (Treatment with Compounds, 10 Concentrations):
# In order to achieve a final concentration of 30 μM as highest concentration 3.5 μl of 10 mM compound stock solution were added directly to 163 μl media. Then step e) of the dilution procedure described below, was followed.
# In order to achieve the second highest to the lowest concentrations, a serial dilution with dilution steps of 1:3 was followed according to the procedure (a-e) as described here below: • a) for the second highest concentration add 10 μl of 10 mM stock solution of compound to 20 μl dimethylsulfoxide (DMSO) • b) dilute 8×1:3 (always 10 μl to 20 μl DMSO) in this DMSO dilution row (results in 9 wells with concentrations from 3333.3 μM to 0.51 μM) • c) dilute each concentration 1: 47.6 (3.5 μl compound dilution to 163 μl media) • d) add 10 μl of every concentration to 60 μl media in the cell plate resulting in final concentration of DMSO: 0.3% in every well and resulting in 10 final concentration of compounds ranging from 30 μM to 0.0015 μM. • Each compound is tested in triplicate. • Incubate 120 h (5 days) at 37° C., 5% CO2 […]
# Add 30 μl CellTiter-Glo™ Reagent (prepared from CellTiter-Glo™ Buffer and CellTiter-Glo™ Substrate (lyophilized) purchased from Promega) per well, shake 15 minutes at room temperature incubate further 45 minutes at room temperature without shaking
# Victor 2 scanning multiwell spectrophotometer (Wallac), Luminescence mode (0.5 sec/read, 477 nm) Determine IC50 using a non-linear curve fit (XLfit software (ID Business Solution Ltd., Guilford, Surrey, UK))
row,Structure (SMILES),IC50
1,"O=C(Nc1ccc(N2CCOCC2)c(F)c1)c1c(NCc2ccccn2)cc[nH]c1=O [Example 1, 2-Oxo-4-[(pyridin-2-ylmethyl)-amino]-1,2-dihydro-pyridine-3-carboxylic acid(3-fluoro-4-morpholin-4-yl-phenyl)-amide]",7460 nM
2,"CN1CCN(c2cccc(NC(=O)c3c(NCCc4ccccc4)cc[nH]c3=O)c2)CC1 [Example 4v, 2-Oxo-4-phenethylamino-1,2-dihydro-pyridine-3-carboxylic acid [3-(4-methyl-piperazin-1-yl)-phenyl]-amide]",500 to 15000 nM
3,"COc1ccc(NC(=O)c2c(NCCc3ccccc3)cc[nH]c2=O)cc1N1CCN(C)CC1 [Example 6i, 2-Oxo-4-phenethylamino-1,2-dihydro-pyridine-3-carboxylic acid [4-methoxy-3-(4-methyl-piperazin-1-yl)-phenyl]-amide]",500 to 15000 nM
4,"CN1CCN(c2ccc(NC(=O)c3c(NCCc4ccccc4)cc[nH]c3=O)cc2)CC1 [Example 6ad, 2-Oxo-4-phenethylamino-1,2-dihydro-pyridine-3-carboxylic acid [4-(4-methyl-piperazin-1-yl)-phenyl]-amide]",500 to 15000 nM
5,"COc1ccccc1CCNc1cc[nH]c(=O)c1C(=O)Nc1cccc(N2CCN(C)CC2)c1 [Example 4ab, 4-[2-(2-Methoxy-phenyl)-ethylamino]-2-oxo-1,2-dihydro-pyridine-3-carboxylic acid [3-(4-methyl-piperazin-1-yl)-phenyl]-amide]",500 to 15000 nM
6,"COc1cccc(CCNc2cc[nH]c(=O)c2C(=O)Nc2cccc(N3CCN(C)CC3)c2)c1 [Example 4y, 4-[2-(3-Methoxy-phenyl)-ethylamino]-2-oxo-1,2-dihydro-pyridine-3-carboxylic acid [3-(4-methyl-piperazin-1-yl)-phenyl]-amide]",500 to 15000 nM
7,"CC(CNc1cc[nH]c(=O)c1C(=O)Nc1cccc(N2CCOCC2)c1)c1ccccc1 (stereo not drawn) [Example 6g, 2-Oxo-4-(2-phenyl-propylamino)-1,2-dihydro-pyridine-3-carboxylic acid (3-morpholin-4-yl-phenyl)-amide]",500 to 15000 nM
8,"CN1CCN(c2ccc(NC(=O)c3c(NC[C@@H](O)c4ccccc4)cc[nH]c3=O)cc2F)CC1 [Example 4c, 4-[(S)-2-Hydroxy-2-phenyl-ethylamino]-2-oxo-1,2-dihydro-pyridine-3-carboxylic acid [3-fluoro-4-(4-methyl-piperazin-1-yl)-phenyl]-amide]",500 to 15000 nM
9,"O=C(Nc1cccc(N2CCCC2)c1)c1c(NCCc2cccc(Cl)c2)cc[nH]c1=O [Example 2e, 4-[2-(3-Chloro-phenyl)-ethylamino]-2-oxo-1,2-dihydro-pyridine-3-carboxylic acid (3-pyrrolidin-1-yl-phenyl)-amide]",500 to 15000 nM
10,"CN1CCN(c2ccc(NC(=O)c3c(NC[C@@H](O)c4cccc(Cl)c4)cc[nH]c3=O)cc2)CC1 [Example 2p, 4-[(S)-2-(3-Chloro-phenyl)-2-hydroxy-ethylamino]-2-oxo-1,2-dihydro-pyridine-3-carboxylic acid [4-(4-methyl-piperazin-1-yl)-phenyl]-amide]",500 to 15000 nM
11,"CC(=O)N1CCN(c2ccc(NC(=O)c3c(NCC(O)c4ccccc4)cc[nH]c3=O)cc2C(F)(F)F)CC1 (stereo not drawn) [Example 3, 4-(2-Hydroxy-2-phenyl-ethylamino)-2-oxo-1,2-dihydro-pyridine-3-carboxylic acid[4-(4-acetyl-piperazin-1-yl)-3-trifluoromethyl-phenyl]-amide]",500 to 15000 nM
12,"Cc1cccc(CCNc2cc[nH]c(=O)c2C(=O)Nc2cccc(N3CCN(C)CC3)c2)c1 [Example 4aa, 2-Oxo-4-(2-m-tolyl-ethylamino)-1,2-dihydro-pyridine-3-carboxylic acid [3-(4-methyl-piperazin-1-yl)-phenyl]-amide]",500 to 15000 nM

# Biological target: T1, FAK Kinase Domain (KD) (Homo sapiens, UniProt Q05397)
# T1 construct: FAK Kinase Domain (KD) from baculo Sf9 was used; made in house; host or cells: baculovirus / Sf9 insect cells
# T1 sequence (Q05397 422-680 limits assumed, species assumed): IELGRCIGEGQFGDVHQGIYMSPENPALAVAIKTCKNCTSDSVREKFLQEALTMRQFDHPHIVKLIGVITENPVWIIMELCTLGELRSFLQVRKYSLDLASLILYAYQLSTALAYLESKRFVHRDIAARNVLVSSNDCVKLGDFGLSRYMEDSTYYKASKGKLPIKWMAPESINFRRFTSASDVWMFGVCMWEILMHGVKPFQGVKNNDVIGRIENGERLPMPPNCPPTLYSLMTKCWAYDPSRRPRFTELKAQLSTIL
# Test: IC50 determination for inhibitors of FAK (ELISA-type assay)
# Format: biochemical
# Conditions: FAK kinase domain from baculo Sf9, biotinylated FAK-397 peptide, 10 μM ATP, 30 min, read-out: IC50 FAK inhibition
row,Structure (SMILES),IC50
1,"O=C(Nc1cccc(N2CCCC2)c1)c1c(NC[C@@H](O)c2ccccc2)cc[nH]c1=O [Example 2d, 4-((S)-2-Hydroxy-2-phenyl-ethylamino)-2-oxo-1,2-dihydro-pyridine-3-carboxylic acid (3-pyrrolidin-1-yl-phenyl)-amide]",93 nM
2,"COc1ccc(NC(=O)c2c(NCCc3cccnc3)cc[nH]c2=O)cc1N1CCN(C)CC1 [Example 6aa, 2-Oxo-4-(2-pyridin-3-yl-ethylamino)-1,2-dihydro-pyridine-3-carboxylic acid [4-methoxy-3-(4-methyl-piperazin-1-yl)-phenyl]-amide]",216 nM
3,"O=C(Nc1ccc(N2CCOCC2)c(F)c1)c1c(NCc2ccccn2)cc[nH]c1=O [Example 1, 2-Oxo-4-[(pyridin-2-ylmethyl)-amino]-1,2-dihydro-pyridine-3-carboxylic acid(3-fluoro-4-morpholin-4-yl-phenyl)-amide]",143 nM
